From ChEMBL document CHEMBL1201862, “PubChem BioAssay data set” (2004)
Activity calls are given as the source filed them.

Assays:
[1] = molecular target: T1, Dual specificity protein phosphatase 3 (Homo sapiens, UniProt P51452); experiment: SAR VHR1 absorbance Assay for In Vitro dose response studies. [Related pubchem assays (depositor defined):AID1654, AID1661, AID1878, AID1992, AID2004]
[2] = molecular target: T2, Dual specificity protein phosphatase 6 (Rattus norvegicus, UniProt Q64346); experiment: SAR analysis of inhibitors of MKP-3 - Set 2. [Related pubchem assays (depositor defined):AID1055, AID1661, AID425, AID553, AID566]; type: functional
T2 sequence (Q64346 whole entry): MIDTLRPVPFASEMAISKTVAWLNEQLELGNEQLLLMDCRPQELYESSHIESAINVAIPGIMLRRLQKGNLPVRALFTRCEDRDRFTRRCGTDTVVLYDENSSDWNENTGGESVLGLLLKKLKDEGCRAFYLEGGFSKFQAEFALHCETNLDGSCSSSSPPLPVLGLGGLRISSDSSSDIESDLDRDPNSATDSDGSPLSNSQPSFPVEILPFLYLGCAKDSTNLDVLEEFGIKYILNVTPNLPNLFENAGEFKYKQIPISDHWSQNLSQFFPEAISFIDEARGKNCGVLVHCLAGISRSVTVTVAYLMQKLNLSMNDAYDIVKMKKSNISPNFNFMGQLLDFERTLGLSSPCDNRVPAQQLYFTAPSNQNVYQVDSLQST

[3] = molecular target: T1, Dual specificity protein phosphatase 3; experiment: VHR1 phosphatase inhibitors, biochemical (AID 1878)
[4] = molecular target: T1, Dual specificity protein phosphatase 3; experiment: SAR VHR1 Fluorescent Assay for In Vitro dose response studies Set 2. [Related pubchem assays (depositor defined):AID1654, AID1661, AID1878]; type: functional
[5] = molecular target: T3, Trace amine-associated receptor 1 (Homo sapiens, UniProt Q96RJ0); experiment: Fluorescence-based cell-based high throughput dose response assay to identify agonists of the human trace amine associated receptor 1 (TAAR1).; type: functional
T3 sequence (Q96RJ0 whole entry): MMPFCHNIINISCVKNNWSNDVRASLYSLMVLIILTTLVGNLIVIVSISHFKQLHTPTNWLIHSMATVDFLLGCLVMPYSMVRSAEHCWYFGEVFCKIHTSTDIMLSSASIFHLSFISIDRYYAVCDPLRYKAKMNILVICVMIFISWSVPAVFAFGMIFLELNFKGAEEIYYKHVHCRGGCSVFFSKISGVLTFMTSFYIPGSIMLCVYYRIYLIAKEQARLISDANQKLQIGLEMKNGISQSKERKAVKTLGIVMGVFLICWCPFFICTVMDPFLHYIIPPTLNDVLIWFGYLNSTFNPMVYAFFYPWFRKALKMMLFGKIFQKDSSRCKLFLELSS

[6] = molecular target: T3, Trace amine-associated receptor 1; experiment: Counterscreen for agonists of the human trace amine associated receptor 1 (hTAAR1): Fluorescence-based cell-based high throughput dose response assay to identify hTAAR1 agonist that also desensitize TAAR1 receptor response.; type: functional
[7] = molecular target: T1, Dual specificity protein phosphatase 3; experiment: SAR VHR1 Fluorescent Assay for In Vitro dose response studies. [Related pubchem assays (depositor defined):AID1654, AID1661, AID1878, AID1992, AID2004, AID2070, AID2085]; type: functional
[8] = molecular target: Tyrosine-protein phosphatase non-receptor type 5 (Homo sapiens, UniProt P54829); experiment: STEP phosphatase inhibitors, confirmation, biochemical, fluorescence intensity, uHTS hits (AID 602372); type: functional; conditions: read-out: IC50_Mean
Chain of Tyrosine-protein phosphatase non-receptor type 5 (P54829 whole entry): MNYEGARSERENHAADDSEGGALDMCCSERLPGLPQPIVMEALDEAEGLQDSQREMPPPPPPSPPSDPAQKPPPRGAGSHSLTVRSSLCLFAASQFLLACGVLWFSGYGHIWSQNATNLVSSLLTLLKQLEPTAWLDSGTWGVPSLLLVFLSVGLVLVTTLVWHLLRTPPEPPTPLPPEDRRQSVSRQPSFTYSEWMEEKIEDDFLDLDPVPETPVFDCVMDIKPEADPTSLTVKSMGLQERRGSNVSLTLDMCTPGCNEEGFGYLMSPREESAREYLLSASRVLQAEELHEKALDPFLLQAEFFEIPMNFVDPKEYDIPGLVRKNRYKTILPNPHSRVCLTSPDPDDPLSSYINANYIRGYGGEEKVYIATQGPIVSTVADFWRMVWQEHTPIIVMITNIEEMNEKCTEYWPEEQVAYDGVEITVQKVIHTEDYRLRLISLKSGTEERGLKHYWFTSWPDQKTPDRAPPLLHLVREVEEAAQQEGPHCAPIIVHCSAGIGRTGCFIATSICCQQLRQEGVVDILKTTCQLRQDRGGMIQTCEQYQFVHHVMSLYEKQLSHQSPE

cells [9] = type: functional, cell-based
[10] = molecular target: T1, Dual specificity protein phosphatase 3; experiment: VHR phosphatase inhibition, dose response, selectivity assay for STEP inhibitor project, biochemical (AID 602374); type: functional; conditions: read-out: IC50_Mean
[11] = molecular target: T4, Tyrosine-protein phosphatase non-receptor type 7 (Homo sapiens, UniProt P35236); experiment: SAR analysis of chemical inhibitors of HePTP using a Fluorescent assay - Set 2. [Related pubchem assays (depositor defined):AID1059, AID1077, AID1661, AID2085, AID521]; type: functional
T4 sequence (P35236 whole entry): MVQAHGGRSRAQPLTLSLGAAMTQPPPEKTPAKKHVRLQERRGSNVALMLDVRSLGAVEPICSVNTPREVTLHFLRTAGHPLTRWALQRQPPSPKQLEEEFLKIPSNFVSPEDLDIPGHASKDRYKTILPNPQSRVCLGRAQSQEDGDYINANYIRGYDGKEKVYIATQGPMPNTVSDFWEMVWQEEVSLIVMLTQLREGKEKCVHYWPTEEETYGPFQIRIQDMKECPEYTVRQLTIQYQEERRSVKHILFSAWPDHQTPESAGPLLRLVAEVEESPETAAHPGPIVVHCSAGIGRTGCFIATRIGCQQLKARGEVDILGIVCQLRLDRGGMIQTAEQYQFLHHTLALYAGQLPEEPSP

[12] = molecular target: Tyrosine-protein phosphatase non-receptor type 11 (Homo sapiens, UniProt Q06124); experiment: SHP2 phosphatase inhibition, dose response, selectivity assay for STEP inhibitor project, biochemical (AID 602367); type: functional; conditions: read-out: IC50_Mean
Chain of Tyrosine-protein phosphatase non-receptor type 11 (Q06124 whole entry): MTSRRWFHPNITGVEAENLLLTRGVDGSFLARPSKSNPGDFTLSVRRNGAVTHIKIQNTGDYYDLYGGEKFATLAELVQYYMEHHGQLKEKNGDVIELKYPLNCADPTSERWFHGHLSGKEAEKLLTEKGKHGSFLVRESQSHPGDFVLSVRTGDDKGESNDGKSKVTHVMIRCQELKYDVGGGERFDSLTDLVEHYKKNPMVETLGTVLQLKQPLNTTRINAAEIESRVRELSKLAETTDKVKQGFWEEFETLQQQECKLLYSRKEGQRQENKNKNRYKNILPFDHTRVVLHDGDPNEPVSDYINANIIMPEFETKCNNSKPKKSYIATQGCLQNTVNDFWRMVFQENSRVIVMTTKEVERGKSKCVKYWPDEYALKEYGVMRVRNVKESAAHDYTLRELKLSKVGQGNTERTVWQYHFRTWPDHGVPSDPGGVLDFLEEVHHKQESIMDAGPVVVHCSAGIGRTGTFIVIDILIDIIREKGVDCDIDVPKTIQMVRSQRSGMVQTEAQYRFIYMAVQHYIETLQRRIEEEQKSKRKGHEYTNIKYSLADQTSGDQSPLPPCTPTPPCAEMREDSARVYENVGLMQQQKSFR

[13] = molecular target: T2, Dual specificity protein phosphatase 6; type: functional
[14] = molecular target: T1, Dual specificity protein phosphatase 3; experiment: VHR1 phosphatase inhibitors, primary screen, biochemical, absorbance, uHTS (AID 1654)
cells [15] = type: functional, cell-based; remark: listed apart in the source
[16] = molecular target: T4, Tyrosine-protein phosphatase non-receptor type 7; experiment: redox-dependent HePTP inhibition, mechanism study, biochemical, fluorescence (AID 2068); type: functional
[17] = molecular target: T2, Dual specificity protein phosphatase 6; experiment: MKP-3 phosphatase inhibitors, primary screen, biochemical, rat enzyme, in vitro (AID 425)
Cytochrome P450 2C19 = Cytochrome P450 2C19 (Homo sapiens, UniProt P33261); experiment: Cytochrome panel assay with activity outcomes. Panel member name: p450-cyp2c19 Compounds with AC50 equal or less than 10 uM are considered active; type: functional
Chain of Cytochrome P450 2C19 (P33261 whole entry): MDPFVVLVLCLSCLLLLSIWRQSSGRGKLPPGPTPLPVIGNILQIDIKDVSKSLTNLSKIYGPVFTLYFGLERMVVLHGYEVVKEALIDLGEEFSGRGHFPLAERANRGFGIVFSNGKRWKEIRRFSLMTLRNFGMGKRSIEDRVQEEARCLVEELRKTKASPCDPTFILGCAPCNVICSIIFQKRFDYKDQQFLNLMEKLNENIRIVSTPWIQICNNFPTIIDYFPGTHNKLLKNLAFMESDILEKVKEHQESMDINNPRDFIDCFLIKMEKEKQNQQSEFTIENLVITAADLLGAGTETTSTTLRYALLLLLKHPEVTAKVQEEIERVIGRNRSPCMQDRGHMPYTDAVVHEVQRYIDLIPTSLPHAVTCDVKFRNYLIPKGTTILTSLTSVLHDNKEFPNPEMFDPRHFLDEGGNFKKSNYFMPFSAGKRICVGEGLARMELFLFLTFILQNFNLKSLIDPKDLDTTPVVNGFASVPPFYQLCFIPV

Cytochrome P450 2C9 = Cytochrome P450 2C9 (Homo sapiens, UniProt P11712)
Chain of Cytochrome P450 2C9 (P11712 whole entry): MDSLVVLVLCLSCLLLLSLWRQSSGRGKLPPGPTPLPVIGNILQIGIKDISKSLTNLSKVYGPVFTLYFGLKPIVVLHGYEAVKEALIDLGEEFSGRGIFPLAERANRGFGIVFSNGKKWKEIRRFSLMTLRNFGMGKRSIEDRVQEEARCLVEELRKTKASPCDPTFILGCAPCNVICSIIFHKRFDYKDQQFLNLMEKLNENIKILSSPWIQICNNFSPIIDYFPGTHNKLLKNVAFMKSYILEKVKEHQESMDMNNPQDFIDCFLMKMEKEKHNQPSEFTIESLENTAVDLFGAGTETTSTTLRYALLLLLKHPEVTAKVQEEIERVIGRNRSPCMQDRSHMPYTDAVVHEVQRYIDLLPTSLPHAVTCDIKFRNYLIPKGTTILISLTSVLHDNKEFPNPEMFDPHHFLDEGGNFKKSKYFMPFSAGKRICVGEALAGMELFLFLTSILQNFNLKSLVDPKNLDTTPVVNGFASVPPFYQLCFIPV

Cytochrome P450 1A2 = molecular target: T5, Cytochrome P450 1A2 (Homo sapiens, UniProt P05177);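 also: PubChem cytochrome P450 panel assay, CYP1A2 panel member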
T5 sequence (P05177 whole entry): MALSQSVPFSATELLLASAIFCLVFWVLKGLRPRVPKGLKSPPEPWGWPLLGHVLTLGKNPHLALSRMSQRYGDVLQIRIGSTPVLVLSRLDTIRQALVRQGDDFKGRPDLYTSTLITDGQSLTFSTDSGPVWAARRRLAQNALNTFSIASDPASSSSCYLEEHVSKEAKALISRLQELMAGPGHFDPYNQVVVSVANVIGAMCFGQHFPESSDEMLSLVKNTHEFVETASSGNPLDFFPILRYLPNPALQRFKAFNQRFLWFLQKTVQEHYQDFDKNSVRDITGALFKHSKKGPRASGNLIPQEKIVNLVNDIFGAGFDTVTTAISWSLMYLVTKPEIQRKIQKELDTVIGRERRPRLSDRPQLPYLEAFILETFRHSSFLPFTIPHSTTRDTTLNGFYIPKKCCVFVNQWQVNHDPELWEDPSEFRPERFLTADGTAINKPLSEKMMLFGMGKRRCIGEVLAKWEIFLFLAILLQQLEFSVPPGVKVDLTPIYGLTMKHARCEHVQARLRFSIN

[18] = inhibitors of firefly luciferase expression or activity, dose response, H4 neuroglioma cells, luminescence (AID 1990); type: functional, cell-based
HEK293 [19] = experiment: SAR Analysis of small molecule inhibitors of B-cell specific antigen receptor-induced NF-kB activation in a HEK-293T cell line using a luminescence assay - Set 2. [Related pubchem assays (depositor defined):AID435022, AID435025, AID489021]; type: functional, cell-based; conditions: Homo sapiens
[20] = cytotoxicity in HEK-293T cells, dose response, cytotoxicity control for BCR NF-kB inhibitor project, luminescence, B-cell screen hits (AID 489021); type: functional, cell-based;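 also: HEK-293T cells carrying an NF-kB luciferase reporter; cells exposed to compound for about 14 hours before viability readout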
[21] = Luminescence Cell-Based Dose Response HTS to Identify Inhibitors of 5'UTR Stem-Loop Driven Prion Protein mRNA Translation in H4 Neuroglioblastoma Cells. [Related pubchem assays: 1827 (Project Summary), 1813 (Primary HTS)]; type: functional
[22] = Luminescence-based counterscreen assay for KLF5 inhibitors: dose response cell-based high throughput screening assay to identify cytotoxic compounds using the IEC-6 intestinal epithelial cell line. [Related pubchem assays: 1700 (Primary screen.), 1834 (Confirmation screen.), 1858 (Summary AID.), 1905 (Counterscreen.)]; type: functional
Jurkat = experiment: SAR Analysis of small molecule inhibitors of […] specific antigen receptor-induced NF-kB activation in a Jurkat cell line using a luminescence assay - Set 3. [Related pubchem assays (depositor defined):AID435022, AID435025, AID465]; type: functional, cell-based; conditions: Homo sapiens
[23] = inhibitors of SNCA 5'UTR-driven reporter translation, confirmation, H4 neuroglioma cells, luminescence (AID 1988); type: functional, cell-based
cells [24] = type: functional, cell-based; remark: listed apart in the source
HEK293 [25] = experiment: cytotoxicity in HEK293T NF-kB-Luc cells, SAR follow-up, cytotoxicity control for NF-kB activator project, cell-based, resazurin fluorescence (AID 493251); type: functional; conditions: Homo sapiens
[26] = luciferase reporter signal reduction – luminescence, H4-C neuroglioblastoma cells, dose response (AID 2458); type: functional, cell-based;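 also: H4 neuroglioblastoma cells stably carrying a luciferase reporter gene fusion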
[27] = inhibitors of SNCA 5'UTR-driven translation, confirmation, luminescence, H4 neuroglioblastoma cells, dose confirmation (AID 2454); type: functional, cell-based;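 also: H4 neuroglioblastoma cells carrying an alpha-synuclein 5'UTR luciferase reporter; potency for inhibition of the luciferase signal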

T1 sequence (P51452 whole entry): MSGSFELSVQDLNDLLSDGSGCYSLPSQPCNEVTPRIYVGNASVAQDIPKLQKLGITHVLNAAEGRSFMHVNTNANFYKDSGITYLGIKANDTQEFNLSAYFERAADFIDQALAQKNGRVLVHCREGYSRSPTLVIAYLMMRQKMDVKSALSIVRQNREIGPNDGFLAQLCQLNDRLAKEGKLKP

S=C(NCCc1ccccc1)Nc1c(Cl)cccc1Cl
IC50 [1]: 342 nM (active)
IC50 [2]: > 100000 nM (inactive)
IC50 [3]: 4310 nM (active)
IC50 [4]: 347 nM (active)
EC50 [5]: 565 nM (active)
IC50 [6]: 4110 nM (active)
IC50 [7]: > 99000 nM (inactive)
IC50 [8]: 14500 nM (active)
EC50 (cells [9]): > 29900 nM (inactive)
IC50 [10]: 1120 nM (active)
IC50 [11]: 447 nM (active)
IC50 [12]: 5760 nM (active)
IC50 [13]: > 99000 nM (inactive)
IC50 [14]: 2440 nM (active)
IC50 (cells [15]): > 29900 nM (inactive)
IC50 [16]: 34.5 nM (active)
IC50 [17]: > 158000 nM (not active)

Cc1noc(C)c1C(=O)N1CCC2(CCCN(C(=O)NC(C)C)C2)CC1
AC50 (Cytochrome P450 2C19): inconclusive
AC50 (Cytochrome P450 2C9): inconclusive
AC50 (Cytochrome P450 1A2): inconclusive

CC(C)(C)c1ccc(-c2noc(CCC(=O)Nc3cccnc3)n2)cc1
EC50 [18]: < 100 nM (active)
IC50 (HEK293 [19]): 470 nM (active)
IC50 [20]: > 80000 nM (inactive)
EC50 [21]: < 100 nM (active)
IC50 [22]: > 39800 nM (not active)
IC50 (Jurkat): 435 nM (active)
EC50 [23]: < 100 nM (active)
EC50 (cells [24]): 321 nM (active)
IC50 (HEK293 [25]): 20500 nM (inactive)
EC50 [26]: 1180 nM (active)
EC50 [27]: 774 nM (active)
